Source: patent publication US20180311236A1 (AB SCIENCE, priority 2015, published 2018)

What was measured:
C57BL/6 mice = experiment: Mortality after MPTP intoxication; format: in vivo, mouse; conditions: 24 hours after treatment by the MPTP (4 injections of 20 mg/kg at 2-hour intervals)
Description: Brain samples were collected after mice anesthesia and sacrifice.

[1] = tested on: Tyrosine Hydroxylase in total brain protein extract; experiment: MPTP mouse model of Parkinson's disease: tyrosine hydroxylase western blotting; conditions: MPTP alone (4 × 20 mg/kg, solvent-treated), control = 100
Description: Each treated group included 10 animals for the MPTP intoxicated groups and 5 animals for the controls.
(§1) C57BL/6J mice are intoxicated with MPTP using an acute protocol, as described hereafter. On the day of MPTP exposure each mouse received 4 injections of MPTP solution (20 mg/kg) at 2-hour intervals for 1 day.
Before brain extraction mice were perfused with 0.9% NaCl 2.6 mM EDTA solution.
And the right brain was immediately frozen in nitrogen liquid for protein analysis. The proteins were extracted with the homogenizer ultra turrax IKA-T10 basic system and quantified using the BCA test (bicinchoninic acid assay).
30 μg of total brain protein were used for western blot analysis using 1:1000 dilution anti-tyrosine hydroxylase rabbit polyclonal antibody (Cat #AB152, Millipore) followed by 1:10000 horseradish peroxidase-conjugated anti-rabbit antibody (Jakson ImmunoResearch). Antibody to actin (Cat #A5316, Sigma Aldrich) were used as loading control followed by 1:10000 horseradish peroxidase-conjugated anti-mouse antibody (Jakson ImmunoResearch). Immunoreactive bands were detected using enhanced chemiluminescent reagents (GE Healthcare, Amersham, UK). Signal intensity was calculated using the Image J software.

[2] = tested on: Tyrosine Hydroxylase in total brain protein extract; experiment: MPTP mouse model of Parkinson's disease: tyrosine hydroxylase ELISA assay
Description: (§2) Each treated group included 10 animals for the MPTP intoxicated groups and 5 animals for the controls. The loss of tyrosine hydroxylase expression, indicative of dopaminergic neuron destruction, was analyzed by western blotting, immunohistochemistry and ELISA assay.
The mice were treated orally by gavage with 0.1 ml corresponding to 25 mg/kg in a 24 g mouse.
as §1
(§3) Dosing was done 2 times per day at 6-hour interval starting day 7 before intoxication and stopping 7 days after MPTP administration. […] Before brain extraction mice were perfused with 0.9% NaCl 2.6 mM EDTA solution.
(§4) The treatment started 7 days before MPTP administration and continued 7 days after.
(§5) After mouse sacrifice and dissection, the left brain was submerged in 4% paraformaldehyde in PBS (phosphate buffered saline) solution for paraffin embedding and then cut into 5 μM-thick coronal section. And the right brain was immediately frozen in nitrogen liquid for protein analysis. The proteins were extracted with the homogenizer ultra turrax IKA-T10 basic system and quantified using the BCA test (bicinchoninic acid assay).
The microliter plate wells were coated overnight at 4° C. with 5μg of total brain protein extract. […]

[3] = tested on: tyrosine hydroxylase in coronal brain sections; experiment: MPTP mouse model of Parkinson's disease: tyrosine hydroxylase immunohistochemistry; format: in vivo; conditions: immunohistochemistry on 5 μm-thick coronal sections; MPTP + masitinib 2 × 5 mg/kg
[4] = tested on: human cord blood mast cells; conditions: cited from earlier work
[5] = tested on: Monoamine oxidase activity from total brain protein extract; experiment: MPTP mouse model: monoamine oxidase fluorometric assay; conditions: MPTP + masitinib 2 × 5 mg/kg, control = 100, MPTP = 108
Description: as §2
This stock solution was defrosted before treatment of mice. The mice were treated orally by gavage with 0.1 ml corresponding to 25 mg/kg in a 24 g mouse.
as §1, §3, §4, §5

[6] = tested on: Ba/F3 cells expressing PDGFR-α; conditions: read-out: IC50, PDGF-BB-stimulated proliferation and PDGFR-α tyrosine phosphorylation; cited from earlier work

Mean expression of tyrosine hydroxylase ([2]; masitinib alone 2 × 30 mg/kg per os, no MPTP, control = 0.275, 30 mg/kg)	Monoamine oxidase fluorometric assay [5]	Compound	mortality (C57BL/6 mice)	Relative average expression of tyrosine hydroxylase [1]	Mean expression of tyrosine hydroxylase ([2]; MPTP + masitinib 2 × 5 mg/kg per os, day -7 to day 7, control = 0.275, MPTP = 0.175, 5 mg/kg)	in situ staining of tyrosine hydroxylase [3]	FcϵRI-mediated degranulation [4]	IC50 [6] [nM]
–	–	CN1CC=C(c2ccccc2)CC1 [MPTP, 1-methyl-4-phenyl-1,2,3,6-tetrahydropyridine]	No mortality	77	–	–	–	–
did not modify significantly	maintained	Cc1ccc(NC(=O)c2ccc(CN3CCN(C)CC3)cc2)cc1Nc1nc(-c2cccnc2)cs1 [Masitinib, 4-(4-methylpiperazin-l-ylmethyl)-N-[4-methyl-3-(4-pyridin-3ylthiazol-2-ylamino)phenyl]benzamide]	–	–	significant attenuation	positive effect	inhibition	300 ± 5
